Source: patent US6391261B1, “Device for detecting analytes related to sample pH” (Lifepoint, Inc., priority 2000, dated 2002)

Test system: cocaine antibody
Experiment: Cross-reactivity of the antibody used in the lateral flow competitive immunoassay for cocaine
Format: binding
Settings: dye labeled cocaine antibody of the saliva test cassette
Description: Each rapid oral fluid test cassette 70 included in this test kit consists of a lateral flow assay strip, a color intensity chart 78, a pH test section 82, and a pH chart 80. The lateral flow assay strip consists of color dye labeled cocaine antibody and a nitrocellulose membrane coated with cocaine-Bovine Serum […] (“BSA”) conjugate. When a saliva sample is applied to the sample section of the cassette, the saliva sample will migrate by capillary movement to the dye-antibody zone and the cocaine-BSA membrane zone. If the sample tested is negative, the dye-antibody will bind with the membrane cocaine-BSA conjugate to form a red band on the membrane.
If the sample tested contains cocaine, cocaine in the sample will bind with the dye-antibody, and thus the binding between the dye-antibody and the membrane cocaine-BSA is prevented. The unbound dye-antibody will migrate away from the membrane to an absorbent pad. As a result, the intensity of the color band appearing on the membrane is inversely proportional to the concentration of cocaine in the saliva sample. A semi-quantitative result of cocaine concentration in the saliva sample is achieved by comparing the color band with a color intensity chart.

Molecule: CCO [ethanol]
- cross-reactivity of the assay antibody as compared with cocaine: No significant cross-reactivity

Molecule: CN1[C@H]2CC[C@@H]1[C@@H](C(=O)O)[C@@H](OC(=O)c1ccccc1)C2 [benzoylecgonine]
- cross-reactivity of the assay antibody as compared with cocaine: less than 5%

Molecule: c1ccc(C2(N3CCCCC3)CCCCC2)cc1 [phencyclidine]
- cross-reactivity of the assay antibody as compared with cocaine: No significant cross-reactivity

Molecule: COc1ccc2c3c1O[C@H]1[C@@H](O)C=C[C@H]4[C@@H](C2)N(C)CC[C@@]341 [codeine]
- cross-reactivity of the assay antibody as compared with cocaine: No significant cross-reactivity

Molecule: CN[C@@H](C)Cc1ccccc1 [methamphetamine]
- cross-reactivity of the assay antibody as compared with cocaine: No significant cross-reactivity

Molecule: CN1CC[C@]23c4c5ccc(O)c4O[C@H]2[C@@H](O)C=C[C@H]3[C@H]1C5 [morphine]
- cross-reactivity of the assay antibody as compared with cocaine: No significant cross-reactivity

Molecule: tetrahydrocannabinols
- cross-reactivity of the assay antibody as compared with cocaine: No significant cross-reactivity
